Laboratory results reported in ChEMBL document CHEMBL3751832, “Synthesis, in vitro and computational studies of 1,4-disubstituted 1,2,3-triazoles as potential α-glucosidase inhibitors” (Bioorg Med Chem Lett, 2016).
Counter-ions that a name gives are not always drawn.

assay: Inhibition of yeast type-3 alpha-glucosidase using p-nitrophenyl-alpha-D-glucopyranoside as substrate after 30 mins; set-up: species or system Saccharomyces cerevisiae

| Compound | IC50 [µM] |
| --- | --- |
| COc1cccc(-n2cc(C3(O)CCCCC3)nn2)c1 | 245 |
| CC(=O)c1cccc(-n2cc(C3(O)CCCCC3)nn2)c1 | 320 |
| CC(=O)c1ccccc1-n1cc(-c2ccccc2)nn1 | 313 |
| COC(=O)Cn1cc(-c2ccccc2)nn1 | 255 |
| OC[C@H]1NC[C@H](O)[C@@H](O)[C@@H]1O [DUVOGLUSTAT HYDROCHLORIDE] | 3.49 |
| Clc1ccccc1-n1cc(-c2ccccc2)nn1 | 57.2 |
| N#Cc1cc([N+](=O)[O-])ccc1-n1cc(C2(O)CCCCC2)nn1 | 49.7 |
| OC1(c2cn(-c3ccccc3Cl)nn2)CCCCC1 | 370 |
| CC(=O)c1cccc(-n2cc(-c3ccccc3)nn2)c1 | 265 |
| O=[N+]([O-])c1ccc(-n2cc(-c3ccccc3)nn2)cc1 | 235 |
| O=[N+]([O-])c1ccc(-n2cc(C3(O)CCCCC3)nn2)cc1 | 320 |
